For one experiment, the target named is T1, MEK5 (Homo sapiens, UniProt Q13163).
T1 construct: gene MAP2K5
As to the kind of experiment: KINOMEscan at […], single concentration. Format: binding.

In another experiment the target is BRAF(V600E) (Homo sapiens, UniProt P15056, V600E). Briefly: biochemical. On the set-up: KINOMEscan competition binding panel (Eurofins DiscoverX), single concentration, percent inhibition. As to conditions: read-out: 15 at 1 µM % inhibition. As for the experimental part:
(§1) KinomeScan® Assay on 7 and 15 was performed as previously described by EuroFins DiscoverX [24]. GSK114 (7) and 15 were submitted for a KINOMEscan® assay to explore the selectivity profile across >400 human kinases at a compound concentration of 1 µM. […] GSK114 (7) is a narrow-spectrum TNNi3K inhibitor but has some potent off-targets including GAK which has been previously reported for this chemotype. […] If utilized together this set of compounds could be useful to investigate TNNi3K biology.

Another experiment addresses BTK (Homo sapiens, UniProt Q06187). As to the kind of experiment: biochemical. The arrangement: KINOMEscan competition binding panel (Eurofins DiscoverX), single concentration, percent inhibition. Conditions: read-out: 15 at 1 µM % inhibition. As for the experimental part:
as §1

The target in a further experiment is CAMK2D (Homo sapiens, UniProt Q13557). As to the kind of experiment: biochemical. On the set-up: KINOMEscan competition binding panel (Eurofins DiscoverX), single concentration, percent inhibition. Conditions: read-out: 15 at 1 µM % inhibition. As for the experimental part: as §1
In a further experiment the target is CAMKK2 (Homo sapiens, UniProt Q96RR4). As to the kind of experiment: biochemical. On the set-up: KINOMEscan competition binding panel (Eurofins DiscoverX), single concentration, percent inhibition. As to conditions: read-out: 15 at 1 µM % inhibition. As for the experimental part: as §1
The target in another experiment is CDK5 (Homo sapiens, UniProt Q00535). Briefly: biochemical. The arrangement: KINOMEscan competition binding panel (Eurofins DiscoverX), single concentration, percent inhibition. Conditions: read-out: 15 at 1 µM % inhibition. As for the experimental part: as §1
A further experiment deals with CDKL2 (Homo sapiens, UniProt Q92772). As to the kind of experiment: biochemical. The arrangement: KINOMEscan competition binding panel (Eurofins DiscoverX), single concentration, percent inhibition. As to conditions: read-out: 15 at 1 µM % inhibition. As for the experimental part:
as §1

The next experiment concerns the target CLK4 (Homo sapiens, UniProt Q9HAZ1). As to the kind of experiment: biochemical. The arrangement: KINOMEscan competition binding panel (Eurofins DiscoverX), single concentration, percent inhibition. As to conditions: read-out: 15 at 1 µM % inhibition. As for the experimental part: as §1
Another experiment has as its target DMPK (Homo sapiens, UniProt Q09013). Briefly: biochemical. On the set-up: KINOMEscan competition binding panel (Eurofins DiscoverX), single concentration, percent inhibition. Conditions: read-out: 15 at 1 µM % inhibition. As for the experimental part: as §1
In another experiment the target is FGR (Homo sapiens, UniProt P09769). Briefly: biochemical. As to conditions: read-out: 15 at 1 µM % inhibition. The arrangement: KINOMEscan competition binding panel (Eurofins DiscoverX), single concentration, percent inhibition. As for the experimental part:
as §1

A further experiment deals with GRK4 (Homo sapiens, UniProt P32298). Briefly: biochemical. On the set-up: KINOMEscan competition binding panel (Eurofins DiscoverX), single concentration, percent inhibition. Conditions: read-out: 15 at 1 µM % inhibition. As for the experimental part: as §1
Sequence of GRK4 (P32298 whole entry): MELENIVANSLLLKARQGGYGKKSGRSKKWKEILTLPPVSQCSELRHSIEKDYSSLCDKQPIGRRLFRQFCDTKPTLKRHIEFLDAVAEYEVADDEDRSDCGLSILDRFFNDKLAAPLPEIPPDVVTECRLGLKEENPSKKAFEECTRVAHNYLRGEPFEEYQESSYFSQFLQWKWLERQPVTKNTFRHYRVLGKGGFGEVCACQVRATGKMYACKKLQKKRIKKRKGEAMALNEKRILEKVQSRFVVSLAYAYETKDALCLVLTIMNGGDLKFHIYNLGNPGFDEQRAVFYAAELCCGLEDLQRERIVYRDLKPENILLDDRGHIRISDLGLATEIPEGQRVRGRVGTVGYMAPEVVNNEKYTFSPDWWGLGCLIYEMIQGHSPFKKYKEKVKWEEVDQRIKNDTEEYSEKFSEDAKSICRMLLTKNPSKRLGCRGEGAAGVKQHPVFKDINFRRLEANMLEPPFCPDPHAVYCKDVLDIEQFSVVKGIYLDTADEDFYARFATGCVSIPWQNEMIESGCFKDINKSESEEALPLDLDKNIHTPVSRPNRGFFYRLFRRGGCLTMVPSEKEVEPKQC
In the next experiment the target is GRK7 (Homo sapiens, UniProt Q8WTQ7). As to the kind of experiment: biochemical. On the set-up: KINOMEscan competition binding panel (Eurofins DiscoverX), single concentration, percent inhibition. Conditions: read-out: 15 at 1 µM % inhibition. As for the experimental part:
as §1

Another experiment deals with KIT(D816H) (Homo sapiens, UniProt P10721, D816H). Briefly: biochemical. As to conditions: read-out: 15 at 1 µM % inhibition. The arrangement: KINOMEscan competition binding panel (Eurofins DiscoverX), single concentration, percent inhibition. As for the experimental part:
as §1

The target in the next experiment is MAPKAPK5 (Homo sapiens, UniProt Q8IW41). As to the kind of experiment: biochemical. The arrangement: KINOMEscan competition binding panel (Eurofins DiscoverX), single concentration, percent inhibition. Conditions: read-out: 15 at 1 µM % inhibition. As for the experimental part: as §1
For the next experiment, the target named is T2, MRCKA (Homo sapiens, UniProt Q5VT25).
T2 construct: gene CDC42BPA
Briefly: biochemical. On the set-up: KINOMEscan competition binding panel (Eurofins DiscoverX), single concentration, percent inhibition. As to conditions: read-out: 15 at 1 µM % inhibition. As for the experimental part:
as §1

In a further experiment the target is T3, MRCKB (Homo sapiens, UniProt Q9Y5S2).
T3 construct: gene CDC42BPB
As to the kind of experiment: biochemical. The arrangement: KINOMEscan competition binding panel (Eurofins DiscoverX), single concentration, percent inhibition. Conditions: read-out: 15 at 1 µM % inhibition. As for the experimental part: as §1

The target of a further experiment is MYLK4 (Homo sapiens, UniProt Q86YV6). Briefly: biochemical. Conditions: read-out: 15 at 1 µM % inhibition. On the set-up: KINOMEscan competition binding panel (Eurofins DiscoverX), single concentration, percent inhibition. As for the experimental part: as §1
Another experiment concerns the target PIK3CG (Homo sapiens, UniProt P48736). Briefly: biochemical. On the set-up: KINOMEscan competition binding panel (Eurofins DiscoverX), single concentration, percent inhibition. Conditions: read-out: 15 at 1 µM % inhibition. As for the experimental part:
as §1

A further experiment deals with ROS1 (Homo sapiens, UniProt P08922). As to the kind of experiment: biochemical. Conditions: read-out: 15 at 1 µM % inhibition. On the set-up: KINOMEscan competition binding panel (Eurofins DiscoverX), single concentration, percent inhibition. As for the experimental part:
as §1

Another experiment has as its target SLK (Homo sapiens, UniProt Q9H2G2). Briefly: biochemical. As to conditions: read-out: 15 at 1 µM % inhibition. On the set-up: KINOMEscan competition binding panel (Eurofins DiscoverX), single concentration, percent inhibition. As for the experimental part: as §1
The next experiment deals with TLK2 (Homo sapiens, UniProt Q86UE8). As to the kind of experiment: biochemical. The arrangement: KINOMEscan competition binding panel (Eurofins DiscoverX), single concentration, percent inhibition. As to conditions: read-out: 15 at 1 µM % inhibition. As for the experimental part:
as §1

The next experiment addresses T4, TRKC (Homo sapiens, UniProt Q16288).
T4 construct: gene NTRK3
As to the kind of experiment: biochemical. The arrangement: KINOMEscan competition binding panel (Eurofins DiscoverX), single concentration, percent inhibition. As to conditions: read-out: 15 at 1 µM % inhibition. As for the experimental part: as §1

A further experiment has as its target T5, YANK2 (Homo sapiens, UniProt Q9NY57).
T5 construct: gene STK32B
As to the kind of experiment: biochemical. The arrangement: KINOMEscan competition binding panel (Eurofins DiscoverX), single concentration, percent inhibition. Conditions: read-out: 15 at 1 µM % inhibition. As for the experimental part: as §1

In another experiment the target is T6, p38-delta (Homo sapiens, UniProt O15264).
T6 construct: gene MAPK13
T6 sequence (O15264 whole entry): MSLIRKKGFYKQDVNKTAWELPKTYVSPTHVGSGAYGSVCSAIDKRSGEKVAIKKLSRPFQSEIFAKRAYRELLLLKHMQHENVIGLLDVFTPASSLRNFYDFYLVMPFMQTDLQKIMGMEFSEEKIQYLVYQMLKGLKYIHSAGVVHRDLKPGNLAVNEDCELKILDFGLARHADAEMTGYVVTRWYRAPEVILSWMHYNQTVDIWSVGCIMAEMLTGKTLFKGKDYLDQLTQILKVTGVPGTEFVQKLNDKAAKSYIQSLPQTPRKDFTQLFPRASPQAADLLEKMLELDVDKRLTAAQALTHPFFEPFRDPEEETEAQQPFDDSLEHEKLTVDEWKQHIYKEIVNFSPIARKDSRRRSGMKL
Briefly: biochemical. On the set-up: KINOMEscan competition binding panel (Eurofins DiscoverX), single concentration, percent inhibition. Conditions: read-out: 15 at 1 µM % inhibition. As for the experimental part: as §1

For the next experiment, the target named is STK36 (Homo sapiens, UniProt Q9NRP7). As to the kind of experiment: KINOMEscan at […], single concentration. Format: binding.

T1 sequence (Q13163 whole entry): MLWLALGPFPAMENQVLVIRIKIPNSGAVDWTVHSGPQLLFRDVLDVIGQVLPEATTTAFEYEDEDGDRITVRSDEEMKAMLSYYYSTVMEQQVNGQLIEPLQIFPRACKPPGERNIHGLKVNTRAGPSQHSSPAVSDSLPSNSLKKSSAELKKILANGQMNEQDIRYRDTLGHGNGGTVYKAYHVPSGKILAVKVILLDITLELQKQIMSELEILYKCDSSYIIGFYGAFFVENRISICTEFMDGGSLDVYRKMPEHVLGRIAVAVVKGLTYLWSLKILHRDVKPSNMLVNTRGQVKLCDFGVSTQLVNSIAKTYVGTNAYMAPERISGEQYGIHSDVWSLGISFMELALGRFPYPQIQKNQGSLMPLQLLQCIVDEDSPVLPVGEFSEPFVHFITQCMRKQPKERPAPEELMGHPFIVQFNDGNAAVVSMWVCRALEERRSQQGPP
T5 sequence (Q9NY57 whole entry): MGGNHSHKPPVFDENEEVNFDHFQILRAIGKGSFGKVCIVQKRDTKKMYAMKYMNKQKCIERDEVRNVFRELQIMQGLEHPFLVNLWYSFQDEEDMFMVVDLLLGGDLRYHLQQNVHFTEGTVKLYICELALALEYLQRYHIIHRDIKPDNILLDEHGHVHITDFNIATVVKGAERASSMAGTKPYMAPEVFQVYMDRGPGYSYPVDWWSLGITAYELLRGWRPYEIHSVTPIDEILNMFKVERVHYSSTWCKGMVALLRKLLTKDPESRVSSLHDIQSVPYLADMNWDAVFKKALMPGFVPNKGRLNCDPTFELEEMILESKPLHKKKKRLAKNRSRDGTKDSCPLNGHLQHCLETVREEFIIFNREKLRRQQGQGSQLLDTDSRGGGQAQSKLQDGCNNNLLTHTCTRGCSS
Sequence of CDKL2 (Q92772 whole entry): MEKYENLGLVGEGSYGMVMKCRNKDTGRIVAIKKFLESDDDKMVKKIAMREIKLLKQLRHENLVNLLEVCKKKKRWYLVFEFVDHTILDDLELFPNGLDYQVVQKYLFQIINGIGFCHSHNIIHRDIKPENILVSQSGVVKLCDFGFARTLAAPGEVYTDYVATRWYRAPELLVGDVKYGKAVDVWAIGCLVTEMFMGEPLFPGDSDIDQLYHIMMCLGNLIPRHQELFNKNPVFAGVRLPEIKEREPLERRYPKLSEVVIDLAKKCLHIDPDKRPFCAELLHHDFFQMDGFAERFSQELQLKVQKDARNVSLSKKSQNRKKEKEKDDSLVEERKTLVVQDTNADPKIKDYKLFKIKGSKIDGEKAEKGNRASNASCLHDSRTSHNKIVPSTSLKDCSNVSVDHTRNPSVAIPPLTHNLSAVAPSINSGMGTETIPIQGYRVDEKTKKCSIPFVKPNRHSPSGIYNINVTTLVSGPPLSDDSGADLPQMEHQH
Sequence of FGR (P09769 whole entry): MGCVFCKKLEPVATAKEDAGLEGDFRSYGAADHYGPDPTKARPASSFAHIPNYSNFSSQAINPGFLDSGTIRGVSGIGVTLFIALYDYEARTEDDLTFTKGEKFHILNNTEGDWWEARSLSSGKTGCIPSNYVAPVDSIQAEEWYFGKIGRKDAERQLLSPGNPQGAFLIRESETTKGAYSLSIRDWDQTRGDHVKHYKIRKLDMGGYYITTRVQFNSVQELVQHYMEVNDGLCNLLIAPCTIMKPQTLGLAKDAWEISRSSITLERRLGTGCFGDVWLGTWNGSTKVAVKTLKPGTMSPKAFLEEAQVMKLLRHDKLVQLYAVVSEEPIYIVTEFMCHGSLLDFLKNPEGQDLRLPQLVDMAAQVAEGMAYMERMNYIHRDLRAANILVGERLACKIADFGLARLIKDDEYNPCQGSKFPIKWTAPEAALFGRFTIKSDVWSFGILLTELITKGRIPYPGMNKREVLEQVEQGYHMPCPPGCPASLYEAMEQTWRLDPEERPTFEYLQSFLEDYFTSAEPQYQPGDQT
Sequence of SLK (Q9H2G2 whole entry): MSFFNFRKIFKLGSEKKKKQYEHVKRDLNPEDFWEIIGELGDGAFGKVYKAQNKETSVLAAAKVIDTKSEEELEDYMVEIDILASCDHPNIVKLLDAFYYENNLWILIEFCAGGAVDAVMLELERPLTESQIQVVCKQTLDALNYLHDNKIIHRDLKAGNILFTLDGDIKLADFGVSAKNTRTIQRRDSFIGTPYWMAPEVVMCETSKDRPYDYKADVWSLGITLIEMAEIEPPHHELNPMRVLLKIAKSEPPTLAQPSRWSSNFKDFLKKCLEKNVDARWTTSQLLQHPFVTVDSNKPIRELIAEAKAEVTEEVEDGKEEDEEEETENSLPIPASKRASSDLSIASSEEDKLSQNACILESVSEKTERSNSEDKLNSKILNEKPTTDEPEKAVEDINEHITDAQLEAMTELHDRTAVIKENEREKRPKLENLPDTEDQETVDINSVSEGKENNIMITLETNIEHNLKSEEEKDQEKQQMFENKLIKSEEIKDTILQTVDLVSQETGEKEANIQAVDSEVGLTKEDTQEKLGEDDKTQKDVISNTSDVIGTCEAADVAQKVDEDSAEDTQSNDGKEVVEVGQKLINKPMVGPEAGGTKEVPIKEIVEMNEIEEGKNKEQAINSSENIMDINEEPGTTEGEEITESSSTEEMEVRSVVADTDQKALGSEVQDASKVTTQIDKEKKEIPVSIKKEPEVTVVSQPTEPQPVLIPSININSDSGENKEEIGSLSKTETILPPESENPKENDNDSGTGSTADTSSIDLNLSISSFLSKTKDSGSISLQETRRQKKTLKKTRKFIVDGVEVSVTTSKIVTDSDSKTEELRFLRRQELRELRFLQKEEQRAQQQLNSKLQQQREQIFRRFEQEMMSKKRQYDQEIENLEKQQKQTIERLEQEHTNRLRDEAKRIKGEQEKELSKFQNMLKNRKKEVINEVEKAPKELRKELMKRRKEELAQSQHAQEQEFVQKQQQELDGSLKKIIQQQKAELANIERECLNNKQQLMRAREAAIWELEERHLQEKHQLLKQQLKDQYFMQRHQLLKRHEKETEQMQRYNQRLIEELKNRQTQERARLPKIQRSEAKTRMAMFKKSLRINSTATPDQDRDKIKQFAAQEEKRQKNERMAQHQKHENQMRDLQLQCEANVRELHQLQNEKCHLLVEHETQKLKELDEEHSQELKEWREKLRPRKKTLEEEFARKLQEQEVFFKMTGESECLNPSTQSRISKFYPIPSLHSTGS
Sequence of KIT(D816H) (P10721 whole entry D816H): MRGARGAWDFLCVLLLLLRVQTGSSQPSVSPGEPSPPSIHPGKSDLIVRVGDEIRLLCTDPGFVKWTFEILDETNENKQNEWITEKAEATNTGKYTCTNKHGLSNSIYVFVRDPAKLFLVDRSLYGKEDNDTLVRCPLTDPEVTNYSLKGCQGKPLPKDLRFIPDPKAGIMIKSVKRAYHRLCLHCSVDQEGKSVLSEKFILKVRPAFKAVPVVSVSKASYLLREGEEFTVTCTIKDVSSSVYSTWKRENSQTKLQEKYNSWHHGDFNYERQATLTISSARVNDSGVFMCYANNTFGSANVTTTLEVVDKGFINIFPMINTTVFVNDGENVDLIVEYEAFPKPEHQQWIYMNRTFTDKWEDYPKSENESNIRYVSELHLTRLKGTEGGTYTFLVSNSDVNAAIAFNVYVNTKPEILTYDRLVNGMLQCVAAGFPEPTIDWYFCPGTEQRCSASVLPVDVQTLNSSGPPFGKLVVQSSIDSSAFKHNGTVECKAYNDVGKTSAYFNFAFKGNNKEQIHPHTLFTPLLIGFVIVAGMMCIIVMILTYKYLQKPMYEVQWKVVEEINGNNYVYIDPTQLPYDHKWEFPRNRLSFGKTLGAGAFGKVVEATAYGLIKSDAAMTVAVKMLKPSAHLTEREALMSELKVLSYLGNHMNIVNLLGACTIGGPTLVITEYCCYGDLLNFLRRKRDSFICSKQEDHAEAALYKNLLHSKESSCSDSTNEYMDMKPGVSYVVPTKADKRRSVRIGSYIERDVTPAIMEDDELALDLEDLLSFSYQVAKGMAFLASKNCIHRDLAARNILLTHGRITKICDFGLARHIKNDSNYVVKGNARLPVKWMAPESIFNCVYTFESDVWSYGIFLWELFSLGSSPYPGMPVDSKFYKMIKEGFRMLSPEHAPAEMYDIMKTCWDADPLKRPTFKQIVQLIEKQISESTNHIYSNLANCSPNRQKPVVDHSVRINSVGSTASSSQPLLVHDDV

In the case of `CNS(=O)(=O)c1ccc(N(C)C)c(Nc2nc(C)nc3cc(OC)c(OC)cc23)c1` [compound 15, 3-((6,7-dimethoxy-2-methylquinazolin-4-yl)amino)-4-(dimethylamino)-N-methylbenzenesulfonamide], the inhibition (as a rule, the drop in the measured response relative to a control, in per cent) at 1 µM is 92% against MEK5; 24% at BRAF(V600E); 26% at BTK; 0% at CAMK2D; 3% on CAMKK2; 3% on CDK5. Besides, the inhibition at 1 µM on CDKL2 worked out at 4%; at CLK4, 5%; at DMPK, 3%; on FGR, 0%; on GRK4 it was 8%; on GRK7, 13%. Besides, the inhibition at 1 µM came out at 16% at KIT(D816H); 23% on MAPKAPK5; 0% at MRCKA; 1% on MRCKB; 0% at MYLK4; 0% at PIK3CG. The inhibition at 1 µM at ROS1 was 0%; at SLK, 0%; on TLK2, 0%; on TRKC it was 22%; at YANK2 it was 0%; on p38-delta, 17%.
Turning to `CNS(=O)(=O)c1ccc(N(C)C)c(Nc2ncnc3cc(OC)c(OC)cc23)c1` [compound 7, 3-((6,7-dimethoxyquinazolin-4-yl)amino)-4-(dimethylamino)-N-methylbenzenesulfonamide], the inhibition at 1 µM against MEK5 was 100%; at STK36 it was 94%.

Source of the values: publication PMC7180948, “New Insights into 4-Anilinoquinazolines as Inhibitors of Cardiac Troponin I–Interacting Kinase (TNNi3K)” (Molecules, 2020).
